Here are results for one substance from patent publication US20210283199A1 (priority 2020, published 2021).

What all share (assay type): cell-based, Clostridium perfringens
Assay [1] concerns C. perfringens strain 4.6.
Assay [2] concerns C. perfringens CP4.6.
Assay [3] concerns agrD gene.
For assay [4], the system named is perfringolysin O (pfoA) toxin secreted by C. perfringens CP4.6.
In assay [5] the test system is netB gene.
Assay [6] deals with C. perfringens strain 4.6. The source holds these as a separate data set.

Entries after “also recorded” stand apart in the source; their conditions may differ.

Consider fengycin, for which the “cell growth (cell count, cfu/ml)” value in assay [1] was “did not interfere and had minimal effect on cell growth”. Moreover, in assay [2], the “C. perfringens cell growth (planktonic cell count)” value was “did not interfere and had minimal effect on C. perfringens cell growth”. Also, in assay [3], the “expression of agrD gene” value was “downregulated” and the “lowest concentration that downregulates expression of agrD” value is recorded as 0.1 ppm. Besides, the “hemolysis activity (zone of clearing)” value in assay [4] is “reduced significantly; also recorded: completely inhibited”. Further, in assay [5], the “expression of netB gene” value is given as “downregulated” and the “lowest concentration that downregulates expression of netB” value amounted to 0.1 ppm. The biofilm formation result in assay [6] is “inhibited the ability of the organism to form biofilm”.
